Data as given in patent publication US6489440B1, “Cyclic compounds” (Basilea Pharmaceutica AG, priority 1998, dated 2002).
Numbered stars: 1 amine (or outer) side, 2 acyl side, 3 side chain; on linkers, the order of the positions; unused ones are H or OH. Bridge positions count the residues as written; N and C are the ends. Square brackets hold non-standard residues; d marks the D form. Peptide text beside a SMILES is read from it. ξ: configuration not given here. X3 = CCCCCCCOc1ccc(-c2ccc(CC[C@H](CC(=O)[*:1])N[*:2])cc2)cc1; ξTyr(3-NO2) = NC(Cc1ccc(O)c([N+](=O)[O-])c1)C(=O)O; X7 = CCCCCCCCCCCCC(C)[C@H](CC(=O)[*:1])O[*:2]; X4 = CC(=O)Nc1cc(CC(N[*:1])C(=O)[*:2])ccc1O; X2 = NC(=O)CC(O)C(N[*:1])C(=O)[*:2]; X1 = O=C(C1C(O)CCN1[*:1])[*:2]; ξY = NC(Cc1ccc(O)cc1)C(=O)O; ξHyp = O=C(O)C1CC(O)CN1; ξOrn = NCCCC(N)C(=O)O; ξT = CC(O)C(N)C(=O)O; ξV = CC(C)C(N)C(=O)O; ξA = CC(N)C(=O)O

Assays:
[1] = system: Aspegillus fumigatus CF1003; test: In vitro antifungal activity, broth micro-dilution; assay type: cell-based; conditions: YNB with 0.2% agarose, 1-2 days at 35° C.
Description: (§1) The in vitro antifungal activities of the representative Aerothricins of the present study were evaluated by determining the 50% inhibitory concentration (IC50), which was calculated as the lowest concentration of an antifungal to inhibit the growth of fungus to […] turbidity compared with the drug-free control growth spectrophotometrically.
(§2) The IC50 values were determined by the broth micro-dilution procedure based on NCCLS Approved Standard with the following minor modifications (National Committee for Clinical Laboratory Standards. (1997) Reference method for broth dilution antifungal susceptibility testing for yeasts. Approved standard. Document M27-A). Yeast Nitrogen Base (YNB; Difco Lab.) supplemented with 1% glucose and 0.25% K2HPO4 was used as testing medium for yeast, the same medium solidified with 0.2% low melting point agarose (BRL) was used for filamentous fungi. Inoculum size was 1-3×10^4 cells/ml, and incubation was performed for 1-2 days at 35° C.

Candida albicans CY1002 = test: In vitro antifungal activity, broth micro-dilution; assay type: cell-based; conditions: YNB medium, 1-2 days at 35° C.
Description: as §1, §2

Fusarium solani CF1088 = test: In vitro antifungal activity, broth micro-dilution; assay type: cell-based; conditions: YNB with 0.2% agarose, 1-2 days at 35° C.
Description: as §1, §2

Candida albicans = test: In vivo antifungal efficacy, systemic candidiasis in mice; set-up: species or system Crj: CD-1 (ICR) mice; conditions: i.v., b.i.d×1 day followed by q.d.×2 days; from survival on day 14
Description: Mice of a conventional immunocompetent mouse strain, Crj: CD-1 (ICR) were used for experimental infection models of systemic candidiasis. 4 weeks old Crj: CD-1 (ICR) mice were used for systemic candidiasis by injecting Candida albicans 5×10^6 conidia/mouse via the tail vein. Treatments were given twice (0, 4 h after infection) on the first day and once daily on following 2 days for systemic candidiasis (b.i.d×1 day followed by q.d.×2 days), intravenously (i.v.). 50% of effective dose (ED50) values was calculated from the survival number at each dose on day 14.

Solubility = conditions: solvents in which soluble
[2] = Acute toxicity on administration to mice for 4 weeks; assay type: in vivo; conditions: 5 mg/kg and 30 mg/kg

SMILES	In vitro Antifungal activity, IC50 [1]	In vitro Antifungal activity, IC50 (Candida albicans CY1002)	In vitro Antifungal activity, IC50 (Fusarium solani CF1088)	In vivo antifungal activity against systemic candidiasis in mice, ED50 on day 14 (Candida albicans)	Solubility (Solubility)	acute toxicity [2]
CCCCCCCOc1ccc(-c2ccc(CC[C@@H]3CC(=O)NC(C(C)O)C(=O)NC(C)C(=O)NC(Cc4ccc(O)c([N+](=O)[O-])c4)C(=O)NC(C(C)C)C(=O)N4CC(O)CC4C(=O)NC(C(C)O)C(=O)NC(C(C)O)C(=O)N4CCC(O)C4C(=O)NC(C(O)CC(N)=O)C(=O)NCC(=O)NC(C(C)O)C(=O)NC(CCCN)C(=O)N3)cc2)cc1 (stereo partly drawn) [Aerothricin 55] ([ξT][ξA][ξTyr(3-NO2)][ξV][ξHyp][ξT][ξT][X1][X2]G[ξT][ξOrn]; linker N-C via X3)	0.04 mg/L	0.04 mg/L	0.39 mg/L	<0.3 mg/kg	–	–
CCCCCCCCCCCCC(C)[C@@H]1CC(=O)NC(C(C)O)C(=O)NC(C)C(=O)NC(Cc2ccc(O)cc2)C(=O)NC(C(C)C)C(=O)N2CC(O)CC2C(=O)NC(C(C)O)C(=O)NC(C(C)O)C(=O)N2CCC(O)C2C(=O)NC(C(O)CC(N)=O)C(=O)NCC(=O)NC(C(C)O)C(=O)NC(CCCN)C(=O)O1 (stereo partly drawn) [Aerothricin 1] ([ξT][ξA][ξY][ξV][ξHyp][ξT][ξT][X1][X2]G[ξT][ξOrn]; linker N-C via X7)	–	–	–	–	Soluble: water, methanol, dimethylsulfoxide	no acute toxicity
CCCCCCCOc1ccc(-c2ccc(CC[C@@H]3CC(=O)NC(C(C)O)C(=O)NC(C)C(=O)NC(Cc4ccc(O)cc4)C(=O)NC(C(C)C)C(=O)N4CC(O)CC4C(=O)NC(C(C)O)C(=O)NC(C(C)O)C(=O)N4CCC(O)C4C(=O)NC(C(O)CC(N)=O)C(=O)NCC(=O)NC(C(C)O)C(=O)NC(CCCN)C(=O)N3)cc2)cc1 (stereo partly drawn) [Aerothricin 43] ([ξT][ξA][ξY][ξV][ξHyp][ξT][ξT][X1][X2]G[ξT][ξOrn]; linker N-C via X3)	0.04 mg/L	0.05 mg/L	0.70 mg/L	–	–	–
CCCCCCCOc1ccc(-c2ccc(CC[C@@H]3CC(=O)NC(C(C)O)C(=O)NC(C)C(=O)NC(Cc4ccc(O)c(NC(C)=O)c4)C(=O)NC(C(C)C)C(=O)N4CC(O)CC4C(=O)NC(C(C)O)C(=O)NC(C(C)O)C(=O)N4CCC(O)C4C(=O)NC(C(O)CC(N)=O)C(=O)NCC(=O)NC(C(C)O)C(=O)NC(CCCN)C(=O)N3)cc2)cc1 (stereo partly drawn) [Aerothricin 57] ([ξT][ξA][X4][ξV][ξHyp][ξT][ξT][X1][X2]G[ξT][ξOrn]; linker N-C via X3)	0.05 mg/L	0.14 mg/L	1.30 mg/L	–	–	–
